A short description of this data set: physchem. As to conditions: pH 7.4 buffer.

The values below come from ChEMBL document CHEMBL3301361, “Experimental in vitro DMPK and physicochemical data on a set of publicly disclosed compounds”.

Values after ≈ are worked out from the molar mass of the structure shown.

For orientation: thermodynamic solubility means solubility found after equilibrating the solid with the medium.

Consider `CC(=O)N1CCN(CC(O)CN2CCN(CCc3c(-c4cc(C)cc(C)c4)[nH]c4sc(C(C)(C)C(=O)N5C6CCC5CC6)cc34)CC2)CC1` (stereo not drawn), for which the solubility (thermodynamic) worked out at 214 µM (≈ 147 µg/mL).
Then `CNC(=O)[C@H](Cc1ccccc1)NC(=O)[C@H](CC(C)C)[C@H](CSc1ccccc1)C(=O)NO`, with 11.2 µM (≈ 5.28 µg/mL); and `COc1cc(N2CC3COCC(C2)N3)ccc1Nc1ncc(Cl)c(-c2cnc3ccccn23)n1`, with 2.6 µM (≈ 1.24 µg/mL).
Then `CC(=O)NC1CN(c2ccc(Nc3ncc(F)c(-c4cnc(C)n4C(C)C)n3)cc2)C1`, with 120 µM (≈ 50.9 µg/mL); and `CC(C)Oc1cc(OCc2ccccc2F)cc(C(=O)Nc2ccc(C(=O)O)cn2)c1`, with 61.7 µM (≈ 26.2 µg/mL).
In the case of `O=C(Nc1ccc(N2CC[S+]([O-])CC2)nc1)c1nnc(Nc2ccccc2F)o1` it was 2.5 µM (≈ 1.04 µg/mL); in that of `COC(=O)N[C@H](C(=O)N1CCC[C@H]1c1nc(-c2ccc(-c3ccc(-c4c[nH]c([C@@H]5CCCN5C(=O)[C@@H](NC(=O)OC)C(C)C)n4)cc3)cc2)c[nH]1)C(C)C`, 10.2 µM (≈ 7.54 µg/mL); in that of `CN1CCN(c2ccc3nc(-c4c(N)c5c(F)cccc5[nH]c4=O)[nH]c3c2)CC1` [DOVITINIB], 8.3 µM (≈ 3.26 µg/mL).
On to `CNC(=O)[C@@H](C)N(C)Cc1cc2c(Nc3cccc(Cl)c3F)ncnc2cc1OC`, for which the solubility (thermodynamic) was 646 µM (≈ 279 µg/mL).
Consider `CCn1cnc(-c2ccccc2)c1-c1nc2c(N)ncnc2s1`, for which the solubility (thermodynamic) is 170 µM (≈ 54.7 µg/mL).
Then `O=c1cc(-c2ccccc2)[nH]c2c(Cl)cccc12`, with 30.9 µM (≈ 7.9 µg/mL); and `C[C@@H]1CN(C(=O)OC(C)(C)C)C[C@H](C)N1c1ncc(OCc2ccc(S(C)(=O)=O)cc2)cn1`, with 4.1 µM (≈ 1.95 µg/mL).
For the molecule `Cc1cc(C)cc(-c2[nH]c3sc(C(C)(C)C(=O)N4C5CCC4CC5)cc3c2CCN2CCC(CNC(=O)N3CCOCC3)CC2)c1`, the solubility (thermodynamic) stood at 112 µM (≈ 72.5 µg/mL). This solubility thermodynamic is about 27-fold higher than that of the molecule before.
In the case of `CCOc1ccc(NCC(=O)c2ccc(C)cc2)cc1` it was 1.2 µM (≈ 0.323 µg/mL); in that of `O=C(c1ccccc1)C1CCN(C(=O)c2cccs2)CC1`, 79.4 µM (≈ 23.8 µg/mL); in that of `CNC(=O)[C@@H](C)Oc1cccc2ncnc(Nc3ccc4c(cnn4Cc4nccs4)c3)c12`, 1.3 µM (≈ 0.597 µg/mL).
In the case of `O=S(=O)(NCc1cc(-c2ccccc2Cl)no1)c1ccc(Cl)cc1` it was 3.1 µM (≈ 1.19 µg/mL); in that of `Cc1ccnc(NC(c2ccccn2)c2c(C)[nH]c3ccccc23)c1` (stereo not drawn), 1.4 µM (≈ 0.46 µg/mL); in that of `N#CC1(NC(=O)[C@@H]2CCCC[C@H]2C(=O)N2CCc3[nH]c4c(C(F)(F)F)cccc4c3C2)CC1`, 144 µM (≈ 66.3 µg/mL).
`COc1cc2ncnc(Nc3cccc(Cl)c3F)c2cc1CN(C)C1(C(N)=O)CCN(C(C)C)CC1` returned a solubility (thermodynamic) of 550 µM (≈ 283 µg/mL).
Then `CCc1cc(NC(=O)Cc2ccc(Oc3ccnc4cc(OC)ccc34)cc2OC)n[nH]1`, with 8.5 µM (≈ 3.68 µg/mL); and `COc1ccc(-c2[nH]nc3c2C(=O)c2ccccc2-3)cc1`, with 0.3 µM (≈ 0.0829 µg/mL); and `CN(C)C(=O)COc1cccc2ncnc(Nc3ccc4c(cnn4Cc4ccccn4)c3)c12`, with 10.7 µM (≈ 4.85 µg/mL).
Then `C[C@H]1CN(c2ncc(OCc3ccc(S(C)(=O)=O)cc3)cn2)CCN1C(=O)OC(C)(C)C`, with 2.2 µM (≈ 1.02 µg/mL); and `O=C(NNc1nc2ccccc2o1)c1ccccc1`, with 129 µM (≈ 32.6 µg/mL).
`Cc1cc(C)cc(-c2[nH]c3sc(C(C)(C)C(=O)N4C5CCC4CC5)cc3c2CN2CCN(CC(=O)N3CCCC3)CC2)c1` registered a solubility (thermodynamic) of 1.7 µM (≈ 1.02 µg/mL).
Regarding `Cc1ccc(-c2cn3cccnc3n2)cc1`, the solubility (thermodynamic) turned out to be 251 µM (≈ 52.6 µg/mL).
Then `CCCSc1ncccc1C(=O)NC1CCCCC1`, with 81.3 µM (≈ 22.6 µg/mL).
For the molecule `O=S(=O)(c1ccc(F)cc1)N1CCCN(c2nccc(C(F)(F)F)n2)CC1`, the solubility (thermodynamic) amounted to 0.9 µM (≈ 0.364 µg/mL).
Then `Cc1cnc(NC(=O)CSc2nnc(C)s2)s1`, with 70.8 µM (≈ 20.3 µg/mL); and `COc1cccc(NC(=O)Cn2cc(Oc3ncnc4cc(OC)c(OCCN5CCCCC5)cc34)cn2)c1`, with 141 µM (≈ 75.3 µg/mL).
Then `COc1ccc(NC(=O)c2ccccn2)cc1`, with 676 µM (≈ 154 µg/mL).
In the case of `COCCNS(=O)(=O)c1ccc(Nc2nccc(-c3c(C)nc(C)n3C)n2)cc1` it was 219 µM (≈ 91.1 µg/mL).
The molecule `COCCN(Cc1cc2c(Nc3cccc(Cl)c3F)ncnc2cc1OC)[C@@H](C)C(N)=O` came in with a thermodynamic solubility of 166 µM (≈ 76.7 µg/mL).
Then `CNC(=O)c1ccc(CN2CCC(c3ccc(C(=O)Nc4ccccc4N)cc3)CC2)cc1`, with 4.8 µM (≈ 2.12 µg/mL); and `COCCN(C)S(=O)(=O)c1ccc(Nc2nccc(-c3cnc(C)n3C)n2)cc1`, with 56.2 µM (≈ 23.4 µg/mL); and `Cc1cccc2c3c([nH]c12)CCN(C(=O)[C@@H]1CCCC[C@H]1C(=O)NC1(C#N)CC1)C3`, with 513 µM (≈ 207 µg/mL).
The molecule `O=C(c1ccc(Cl)cc1)C1CCN(C(=O)c2ccccc2)CC1` yielded a solubility (thermodynamic) of 29.5 µM (≈ 9.67 µg/mL).
Consider `CCN1CCC[C@@H](C(=O)N2CCN(C(=O)Nc3ccc(Cl)c(Cl)c3)CC2)C1`, for which the thermodynamic solubility was found to be 1050 µM (≈ 433 µg/mL). Compared with the last molecule, the solubility thermodynamic is about 36-fold higher.
For `CN1CCN(CCCOc2cc(OC3CCOCC3)c3c(Nc4ccc(F)c(Cl)c4)ncnc3c2)CC1`, the thermodynamic solubility worked out at 38 µM (≈ 20.1 µg/mL).
Then `COc1ccc(/C=C\c2cc(OC)c(OC)c(OC)c2)cc1NC(=O)[C@@H](N)CO` [OMBRABULIN], with 1510 µM (≈ 609 µg/mL); and `Cc1cnc(NC(=O)c2ccccn2)s1`, with 200 µM (≈ 43.7 µg/mL).
In the case of `COC[C@H](C)Oc1cc(O[C@@H](C)Cc2cc(F)cc(F)c2)cc(C(=O)Nc2ccc(C(=O)O)cn2)c1` it was 646 µM (≈ 323 µg/mL); in that of `Cc1cc(C)cc(-c2[nH]c3sc(C(C)(C)C(=O)N4C5CCC4CC5)cc3c2C(=O)CN2CCN(CC(=O)N3CCCC3)CC2)c1`, 70.8 µM (≈ 44.6 µg/mL).
In the case of `CCCNC(=O)Nc1ccc(Oc2ncnc3cc(OC)c(OC)cc23)cc1Cl` [KRN-633] it was 0.2 µM (≈ 0.0834 µg/mL); in that of `CCN(C(=O)Cc1ccc(S(C)(=O)=O)cc1)C1CCN(CCC(c2ccccc2)C2CCN(C(C)=O)CC2)CC1` (stereo not drawn), 1510 µM (≈ 859 µg/mL); in that of `Cc1ncc(-c2ccnc(Nc3ccc(N4CCOCC4)cc3)n2)n1C(C)C`, 56.2 µM (≈ 21.3 µg/mL).
`O=C(CC(c1ccccc1)S(=O)(=O)c1ccccc1)c1ccccc1` (stereo not drawn) showed a solubility (thermodynamic) of 1.1 µM (≈ 0.385 µg/mL).
Regarding `COc1ccc(N2CCNCC2)cc1Nc1ncc(Cl)c(-c2cnc3ccccn23)n1`, the thermodynamic solubility was 69.2 µM (≈ 30.2 µg/mL).
In the case of `Cc1cc(C)cc(-c2[nH]c3ccc(C(C)(C)C(=O)N4C5CCC4CC5)cc3c2CCN(C)CCCCc2ccncc2)c1` it was 0.9 µM (≈ 0.519 µg/mL).
In the case of `OC1CCN(CCOc2n[nH]c3ncnc(Nc4ccc(OCc5ccccn5)c(Cl)c4)c23)CC1` it was 13.8 µM (≈ 6.84 µg/mL); in that of `N#CC1(NC(=O)[C@@H]2CCCC[C@H]2C(=O)N2CCc3[nH]c4ncccc4c3C2)CC1`, 1510 µM (≈ 593 µg/mL); in that of `COc1ccccc1Oc1coc2cc(O)ccc2c1=O`, 12.9 µM (≈ 3.67 µg/mL).
Then `COC1CCN(C(=O)C2CCN(CCc3c(-c4cc(C)cc(C)c4)[nH]c4sc(C(C)(C)C(=O)N5C6CCC5CC6)cc34)CC2)C1` (stereo not drawn), with 70.8 µM (≈ 44.7 µg/mL); and `N=C1S/C(=C/c2ccco2)C(=O)N1c1nccs1`, with 182 µM (≈ 50.5 µg/mL); and `COc1ccc2[nH]c3c(c2c1)CN(C(=O)[C@@H]1CCCC[C@H]1C(=O)NC1(C#N)CC1)CC3`, with 813 µM (≈ 342 µg/mL).
As to `CS(=O)(=O)Cc1cc(N2CCOCC2)nc(-c2ccc(NS(C)(=O)=O)cc2)n1`, the thermodynamic solubility was determined as 11.2 µM (≈ 4.78 µg/mL).
The molecule `O=C(c1ccc(F)cc1)C1CCN(C(=O)c2ccc(F)cc2Cl)CC1` returned a thermodynamic solubility of 14.5 µM (≈ 5.27 µg/mL). The solubility thermodynamic values of the last two molecules are within 1.5-fold of each other.
In the case of `Cc1ccccc1N(C)c1ccnc(Nc2cc(N3CCOCC3)cc(N3CCOCC3)c2)n1`, the solubility (thermodynamic) is 30.9 µM (≈ 14.2 µg/mL).
Then `O=C(c1ccccc1)C1CCN(C(=O)c2c(F)cccc2F)CC1`, with 13.2 µM (≈ 4.35 µg/mL).
In the case of `CCOC(=O)c1cc2ccccc2[nH]1` it was 89.1 µM (≈ 16.9 µg/mL); in that of `COc1cc2ncnc(Nc3cc(NC(=O)c4ccccc4)c(Cl)cc3F)c2cc1OC`, 1.9 µM (≈ 0.86 µg/mL); in that of `COc1cc2ncnc(Nc3cnn(CC(=O)Nc4cccc(F)c4)c3)c2cc1OC`, 2 µM (≈ 0.845 µg/mL).
In turn, `CN(c1ccnc(Nc2cccc(S(C)(=O)=O)c2)n1)c1c(Cl)ccc2c1OCO2` gave a solubility (thermodynamic) of 3.5 µM (≈ 1.52 µg/mL).
Molecule `O=C(c1ccc(F)cc1)C1CCN(C(=O)Nc2ccc(F)cc2)CC1` came in with a thermodynamic solubility of 4.5 µM (≈ 1.55 µg/mL).
In the case of `C[C@@H](Oc1cccc2ncnc(Nc3ccc4c(cnn4Cc4cscn4)c3)c12)C(N)=O` it was 8.7 µM (≈ 3.88 µg/mL); in that of `CCC[C@@H]1O[C@@H]2C[C@H]3[C@@H]4CCC5=CC(=O)C=C[C@]5(C)[C@H]4[C@@H](O)C[C@]3(C)[C@]2(C(=O)CO)O1` [DEXBUDESONIDE], 19.5 µM (≈ 8.4 µg/mL).
`CN(C(=O)Cc1ccc(S(C)(=O)=O)cc1)[C@@H]1CCN(Cc2nc3ccccc3s2)C[C@@H]1F` showed a thermodynamic solubility of 9.1 µM (≈ 4.33 µg/mL).
In turn, `COc1cccc(NC(=O)Cn2cc(Nc3ncnc4cc(OC)c(OC)cc34)cn2)c1` showed a solubility (thermodynamic) of 4.4 µM (≈ 1.91 µg/mL).
In the case of `Nc1nnc(Cc2ccccc2)s1` it was 1200 µM (≈ 230 µg/mL); in that of `CCn1ccc(NC(=O)Cc2ccc(Oc3ncnc4cc(OC)c(OC)cc34)cc2)n1`, 32.4 µM (≈ 14 µg/mL); in that of `Cc1ccc(C(=O)N2CCC(C(=O)c3ccc(F)cc3)CC2)cc1`, 20.4 µM (≈ 6.64 µg/mL).
In the case of `CN(C(=O)Cc1ccc(-n2cnnn2)cc1)C1CCN(Cc2nc3c(s2)CCCC3)CC1` it was 9.8 µM (≈ 4.43 µg/mL); in that of `CCc1cc(NC(=O)Cc2ccc(Oc3ccnc4cc(OC)ccc34)cc2OC)no1`, 4.2 µM (≈ 1.82 µg/mL); in that of `C[C@H](COc1cccc2ncnc(Nc3ccc(OCc4ccccn4)c(Cl)c3)c12)N(C)C(=O)CO`, 14.1 µM (≈ 7.16 µg/mL).
In the case of `COC[C@H](C)Oc1cc(Oc2cccc(N(C)C)c2)cc(C(=O)Nc2ccc(C(=O)O)cn2)c1` it was 1350 µM (≈ 628 µg/mL).
Consider `CC1(C)C=Cc2c(O)nc3ccccc3c2O1` [FLINDERSINE], for which the solubility (thermodynamic) stood at 67.6 µM (≈ 15.4 µg/mL).
Then `O=C(NCCSCc1c(F)cccc1Cl)Nc1ccccc1`, with 5.1 µM (≈ 1.73 µg/mL); and `O=C1NCCc2c1[nH]c1ccccc21`, with 1260 µM (≈ 234 µg/mL); and `O=C(c1ccc(F)cc1)C1CCN(C(=O)c2cc(F)cc(F)c2)CC1`, with 6 µM (≈ 2.08 µg/mL).
Then `c1ccc2c(c1)Cc1ccccc1O2` [XANTHENE], with 4.4 µM (≈ 0.802 µg/mL); and `CC(C)c1c(C(=O)NC2C3CC4CC(C3)CC2C4)cnn1-c1ccc(C(=O)O)cc1` (stereo not drawn), with 224 µM (≈ 91.2 µg/mL); and `O=C(NC1C2CC3CC(C2)CC1C3)[C@H]1CCCN1Cc1ccc(Cl)cc1` (stereo partly drawn), with 21.4 µM (≈ 7.98 µg/mL).
